These results are taken from US20230302031A1, “Modulators Of Purinergic Receptors and Related Immune Checkpoint For Treating Acute Respiratory Distress Syndrome” (priority 2020, published 2023).

The target of series [1] is T1, P2Y2-NLRP3 interaction (Homo sapiens, UniProt P41231).
T1 construct: Frequency of P2Y2-NLRP3 PLA+ cells detected after treatment of PMA-primed THP1 with 100 μM AR-C118925XX; endogenous in cells; host or cells: PMA-primed THP1 macrophages (ATCC)
Kind of series: P2Y2-NLRP3 proximity ligation assay in PMA-primed THP1. It is filed as cell-based. The note with it: 100 μM, 96 hours; FIG. 10A.

Series [2] relates to PMA-treated THP1 macrophages. Nature of the series: IRF5 expression in IFNγ-stimulated PMA-THP1 macrophages (western blot). It is filed as cell-based, human. The method, then:
(§1) Human THP-1 cells were cultured in RPMI 1640 media, supplemented with 10% FBS and differentiated by treatment for 3 hours with 100 nM phorbol-12-myristate-13-acetate (PMA, Invivogen). After 2 days, macrophage THP-1 cells were stimulated first 3 hours with ultrapure LPS from E. coli (10 ng/ml, LPS) and then stimulated for 6 hours with ATP (5 mM, Sigma) or treated with 50 ng or 20 ng of IFNg during 24 or 12 hours as indicated. Then, supernatants and cells were collected for western blot analysis.
(§2) Cells or supernatant were lysed in appropriated buffer (250 mM NaCl, 0.1% NP-40, 5 mM EDTA, 10 mM Na3VO4, 10 mM NaF, 5 mM DTT, 3 mM Na4P2O7, 1 mM EGTA, 10 mM Glycerol phosphate, 10 mM Tris-Hcl (pH=7.5) and the protease and phosphatase inhibitors (Roche)). Equal amount of supernatant or 10-40 μg of protein extracts were run on 4-12% or 10% SDS-PAGE and transferred at 4° C. onto a nitrocellulose membrane (0.2 Micron). After incubation for 2 hours at room temperature with 5% nonfat milk or BSA (Bovine Serum Albumine) in Tris-buffered saline and 0.1% Tween 20 (TBS-Tween), membranes were incubated with primary antibody at 4° C. overnight. […] The primary antibodies against. […] Western blots shown are representative of at least of three independent experiments.
Total cellular proteins were extracted and lysed in appropriated buffer containing 250 mM NaCl, 0.1% NP-40, 5 mM EDTA. 10 mM Na3VO4, 10 mM NaF, 5 mM DTT, 3 mM Na4P2O7, 1 mM EGTA, 10 mM Glycerol phosphate, 10 mM Tris-HCl (pH=7.5) and the protease and phosphatase inhibitors (Roche)). Then, 10-40 μg of protein extracts were run on 4-12% or 12% SDS-PAGE and transferred at 4° C. onto a nitrocellulose membrane (0.2 Micron). After 2 hours saturation at room temperature with 5% nonfat milk or BSA (Bovine Serum Albumin) in Tris-buffered saline and 0.1% Tween 20 (TBS-Tween), nitrocellulose membranes were incubated with primary antibody at 4° C. overnight. […] The primary antibodies against P2Y2 (#APR-010) and P2X7 (#APR-004) were obtained from Alomone laboratories. […]
Background: In western blotting, separated proteins are transferred to a membrane and probed.

Series [3] concerns SARS-CoV-2. Nature of the series: SARS-CoV-2 replication in Vero E6 cells (RdRp and E mRNA, quantitative RT-PCR). It is filed as cell-based. The note with it: 500 μM UTP, 100 μM Diquafosol, 5 μM Denufosol; for amount of RdRp and E mRNA (viral replication): Vero E6, 16 and 24 hours of infection, 50 μM PPADS, 100 μM BzATP, FIG. 2.
Series [4] concerns SARS-CoV-2. Kind of series: SARS-CoV-2 replication in ACE2-A549 cells (RdRp and E mRNA, Spike expression). The conditions noted are these: ACE2-A549, 48 hours; 500 μM UTP, 100 μM Diquafosol, 5 μM Denufosol; FIG. 7F-H. It is filed as cell-based.
For series [5], the system named is SARS-CoV-2. It is filed as cell-based. The note with it: FIG. 7K; for ACE2 expression in response to SARS-CoV-2 infection: western blot; for intracellular expression of Spike: Vero E6, 24 hours, 50 μM PPADS, 100 μM OxATP, 100 μM BzATP.
In series [6] the test system is SARS-CoV-2. It is filed as cell-based. The note with it: Vero E6, 72 hours infection, MOI 1-2, indicated concentrations, MTT.
The subject of series [7] is ACE2. It is filed as cell-based. The note with it: ACE2-A549, 24 hours; same concentrations; FIG. 14B.
Series [8] has as its system ACE2. It is filed as cell-based, African green monkey. The note with it: Vero E6, 24 hours; 500 μM UTP, 100 μM Diquafosol, 5 μM Denufosol, 50 μM PPADS, 100 μM OxATP, 100 μM BzATP; FIG. 14A.
In series [9] the test system is PMA-treated THP1 macrophages. Kind of series: IL-1β release from LPS+ATP-stimulated PMA-THP1 macrophages (western blot/ELISA). It is filed as cell-based, human. The note with it: for IL-1β release: 100 μM compound, 10 ng/mL LPS 3 hours + 5 mM ATP 6 hours, FIG. 6E, 6I. The protocol:
as §1, §2
Plasma serum from P2y2^+/+ and P2y2^−/− mice and supernatants harvested from PMA-stimulated THP1 macrophages that were depleted or not for P2Y2 or NLRP3, and/or stimulated with 10 ng/mL LPS during 3 hours and 5 mM ATP during 6 hours or with 20 ng/mL IFNγ, in presence or in absence of 100 μM Suramin, 100 μM OxATP, 100 μM Kaempferol or 100 μM Diquafosol at indicated times were analyzed using western blot or ELISA for IL-1β (Ebioscience) and IL-10 (BD) according to the manufacturers' instructions.

For series [10], the system named is Bleomycin-induced lung inflammation. Nature of the series: Mouse model of bleomycin-induced lung inflammation. It is filed as in vivo, C57BL/6 mice. The conditions noted are these: 300 μg intraperitoneally every 3 days.
Series [11] has as its system SARS-CoV-2. It is filed as cell-based. The note with it: Vero E6, 24 hours, 50 μM PPADS, 100 μM OxATP.
Series [12] has as its system ACE2-A549 cells. The note with it: ACE2-A549, 72 hours, MTT; PPADS and OxATP at 100 μM; BzATP indicated concentrations.
Series [13] has as its system Vero E6 cells. The conditions noted are these: Vero E6, 72 hours, MTT; PPADS and OxATP at 100 μM; BzATP indicated concentrations.

Read-outs that look alike come from different tables or passages of the source.

T1 sequence (P41231 whole entry): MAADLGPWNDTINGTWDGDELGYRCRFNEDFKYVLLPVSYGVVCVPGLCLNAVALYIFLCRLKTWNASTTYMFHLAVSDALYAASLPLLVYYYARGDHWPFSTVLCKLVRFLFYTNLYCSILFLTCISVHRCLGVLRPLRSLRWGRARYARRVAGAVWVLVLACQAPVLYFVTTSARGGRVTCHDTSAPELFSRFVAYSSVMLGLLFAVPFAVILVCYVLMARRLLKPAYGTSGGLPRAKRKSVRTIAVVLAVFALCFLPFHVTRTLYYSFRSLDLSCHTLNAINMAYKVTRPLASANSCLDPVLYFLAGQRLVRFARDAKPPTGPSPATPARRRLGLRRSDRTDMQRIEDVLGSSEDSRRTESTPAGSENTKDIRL

Turning to `Cc1ccc2c(c1)C=Cc1cc(C)ccc1C2c1cn(Cc2ccc(C(=O)Nc3nn[nH]n3)o2)c(=O)[nH]c1=S` [AR-C118925XX], the “P2Y2-NLRP3 interaction (frequency of PLA+ cells)” value in series [1] is listed as “enhanced the P2Y2-NLRP3 interaction”.
Consider `O=c1ccn([C@@H]2O[C@H](COP(=O)(O)OP(=O)(O)OP(=O)(O)OP(=O)(O)OC[C@H]3O[C@@H](n4ccc(=O)[nH]c4=O)[C@H](O)[C@@H]3O)[C@@H](O)[C@H]2O)c(=O)[nH]1` [Diquafosol], for which, in series [2] (PMA-THP1 macrophages, FIG. 6P), the “IFNγ-mediated increase expression of IRF5” value is “impaired IFNγ-mediated increase expression of IFN regulatory factor 5 (IRF5)”. For the same molecule, in series [2] (indicated concentrations, 20 ng IFNγ 12 hours, FIG. 1D), the IRF5 expression entry is “confirmed”. In addition, the “amount of RdRp and E mRNA (viral replication)” value in series [3] was “strongly reduced the amount of RdRp and E mRNA”. The “replication of SARS-CoV-2 and/or associated cytopathogenic effects” value was “strongly blocked the replication of SARS-CoV-2 and/or reduced associated cytopathogenic effects” in [3] (Vero E6, RdRp and E mRNA, Spike-positive cells, viability, FIG. 7D, 7E, 7I-7K, 12A, 12B); “strongly blocked the replication of SARS-CoV-2 and/or reduced associated cytopathogenic effects” in [4]. The “ACE2 expression in response to SARS-CoV-2 infection” value in series [5] is given as “repressed ACE2 down regulation”. The “cytopathogenicity / cytopathogenic effects of SARS-CoV-2” value in series [6] is “exhibited inhibitory effects on cytopathogenicity”. Further, the ACE2 membrane expression entry in series [7] and in series [8] was “did not change” throughout. In addition, the IL-1β release entry in series [9] is on record as “impaired IL-1β release”. Moreover, the “release of IL-1β in supernatant” value in [9] (indicated concentrations, 12 hours, LPS+ATP, FIG. 1B) was “impaired the release of IL-1β”. Also, the Bleomycin-induced lung inflammation result in [10] (50 UI bleomycin intratracheal, FIG. 17) is recorded as “abolishes Bleomycin-induced lung inflammation”. The “lung lesions (CT scan)” value in series [10] (day 20, FIG. 17A) was “reduces lung lesions induced by bleomycin treatment”.
For `Nc1ncnc2c1ncn2[C@@H](C=O)O[C@@H](C=O)COP(=O)(O)OP(=O)(O)OP(=O)(O)O` [OxATP, oxidized ATP], the “frequency of Spike-positive cells” value in series [11] is reported as “reduced the frequency of Spike-positive cells”. Also, the “intracellular expression of Spike” value in series [5] is “reduced”. Further, the “ACE2 expression in response to SARS-CoV-2 infection” value in [5] is given as “repressed ACE2 down regulation”. For the same molecule, the “viability of uninfected cells” value in [12] and in series [13] was “partially affected viability” in each case. For the same molecule, the “cytopathogenicity / cytopathogenic effects of SARS-CoV-2” value in series [6] is on record as “reduced”. The ACE2 membrane expression entry in series [7] and in series [8] was “did not change” in each case. In addition, in [9], the IL-1β release entry was “reduced IL-1β release”.
Turning to `Cc1nc(N=Nc2ccc(S(=O)(=O)O)cc2S(=O)(=O)O)c(COP(=O)(O)O)c(C=O)c1O` [PPADS, pyridoxal-phosphate-6-azopheny-2′,4′-disulfonate], in series [11], the “frequency of Spike-positive cells” value is reported as “reduced the frequency of Spike-positive cells”. Besides, the “amount of RdRp and E mRNA (viral replication)” value in series [3] was “repressed RdRp and E mRNA expression”. Further, the “intracellular expression of Spike” value in [5] is “reduced”. Further, the “viability of uninfected cells” value in [12] and in series [13] was “partially affected viability” each time. The “cytopathogenicity / cytopathogenic effects of SARS-CoV-2” value in series [6] is given as “reduced”. Moreover, the ACE2 membrane expression entry in series [7] and in series [8] was “did not change” throughout.
